Legend:
eggs of Aleyrodidae = experiment: Effect on hatching of eggs of Aleyrodidae, leaf disc method; format: in vivo; details: 10 ppm; for Hatching rate (%), Replicate 1 / Hatching rate (%), Replicate 2 / Hatching rate (%), Replicate 3 / Number of hatched larvae 5 days after insecticide delivery, Replicate 1 / Number of hatched larvae 5 days after insecticide delivery, Replicate 2 / Number of hatched larvae 5 days after insecticide delivery, Replicate 3: Aleyrodidae eggs; for Hatching rate (%), Replicate 1 / Hatching rate (%), Replicate 2 / Hatching rate (%), Replicate 3: 5 days after delivery; for Number of hatched larvae 5 days after insecticide delivery, Replicate 1 / Number of hatched larvae 5 days after insecticide delivery, Replicate 2 / Number of hatched larvae 5 days after insecticide delivery, Replicate 3: leaf disc
Procedure, shortened: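 Leaf discs carrying Aleyrodidae eggs were first examined microscopically to record a baseline egg count. They were then dipped for 10 seconds in compound solution at 10 ppm or in clear water, taken out, and incubated with humidity maintained. Five days after delivery, the number of hatched larvae was recorded to assess hatching inhibition.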

[1] = test system: eggs of Harmonia axyridis; experiment: Effect on hatching of eggs of Harmonia axyridis, egg card immersion; format: in vivo; details: 100 ppm; for Number of hatched larvae 4 days after insecticide delivery, Replicate 1 / Number of hatched larvae 4 days after insecticide delivery, Replicate 2 / Number of hatched larvae 4 days after insecticide delivery, Replicate 3: Harmonia axyridis egg cards, immersed 30 seconds; for Hatching rate (%), Replicate 1 / Hatching rate (%), Replicate 2 / Hatching rate (%), Replicate 3: Harmonia axyridis eggs, 4 days after delivery
Procedure, shortened: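 Egg cards (~20 eggs each) dipped 30 s in 100 ppm insecticide, air dried and kept moist at 27° C; 5 cards per treatment, 3 replicates. Hatching assessed 4 days after treatment against pre-treatment egg counts, and control effect calculated by formula.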

Magnaporthe grisea = format: cell-based; details: 100 ppm; for Average antifungal rate (%) / Antifungal rate of Magnaporthe grisea (%), Replicate 1 / Antifungal rate of Magnaporthe grisea (%), Replicate 2 / Antifungal rate of Magnaporthe grisea (%), Replicate 3: 96-well plate; for Average antifungal rate (%): average of 3 replicates
[2] = test system: pest eggs of Tetranychus cinnabarinus; experiment: Effect on hatching of pest eggs of Tetranychus cinnabarinus, leaf disc method; format: in vivo; details: for Hatching rate (%): 7 days after insecticide delivery; for inhibitory effect on the hatching of pest eggs of Tetranychus cinnabarinus (in words): 1 ppm
Procedure, shortened: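 Adult female mites laid eggs on 2.0 cm Vicia faba leaf discs for up to 36 h; discs with counted eggs were dipped 10 s in compound solution or water, then kept moist. Hatched eggs were counted 7 days after treatment and control effect was calculated by formula.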

Compound	inhibitory rate against Magnaporthe grisea (in words) (Magnaporthe grisea)	Average antifungal rate (%) (Magnaporthe grisea)	Antifungal rate of Magnaporthe grisea (%), Replicate 1 (Magnaporthe grisea) [%]	Antifungal rate of Magnaporthe grisea (%), Replicate 2 (Magnaporthe grisea) [%]	Antifungal rate of Magnaporthe grisea (%), Replicate 3 (Magnaporthe grisea) [%]	Hatching rate (%) ([2]; 0.25 mg/L, Replicate 1)	Hatching rate (%) ([2]; 0.25 mg/L, Replicate 2)	Number of hatched larvae 7 days after insecticide delivery ([2]; 0.25 mg/L, Replicate 1)	Number of hatched larvae 7 days after insecticide delivery ([2]; 0.25 mg/L, Replicate 2)	Hatching rate (%) ([2]; 0.5 mg/L, Replicate 1)	Hatching rate (%) ([2]; 0.5 mg/L, Replicate 2)	Number of hatched larvae 7 days after insecticide delivery ([2]; 0.5 mg/L, Replicate 1)	Number of hatched larvae 7 days after insecticide delivery ([2]; 0.5 mg/L, Replicate 2)	Hatching rate (%) ([2]; 1 mg/L, Replicate 1)	Hatching rate (%) ([2]; 1 mg/L, Replicate 2)	Number of hatched larvae 7 days after insecticide delivery ([2]; 1 mg/L, Replicate 1)	Number of hatched larvae 7 days after insecticide delivery ([2]; 1 mg/L, Replicate 2)	inhibitory activity on the hatching of eggs of Aleyrodidae (in words) (eggs of Aleyrodidae)	Hatching rate (%), Replicate 1 (eggs of Aleyrodidae) [%]	Hatching rate (%), Replicate 2 (eggs of Aleyrodidae) [%]	further results
C[C@H](COS(=O)OCCF)Oc1ccc(Cl)cc1Cl (stereo partly drawn) [1-(R,S)]	strong inhibitory rate	81.91	75.86	83.08	86.80	74.51	76.47	13	14	43.66	48.98	40	25	4.69	6.67	61	42				Hatching rate (%), Replicate 1 (eggs of Aleyrodidae; listed as 1-(R, S)): 7.95%; Hatching rate (%), Replicate 2 (eggs of Aleyrodidae; listed as 1-(R, S)): 7.41%; Hatching rate (%), Replicate 3 (eggs of Aleyrodidae; listed as 1-(R, S)): 7.44%; Number of hatched larvae 5 days after insecticide delivery, Replicate 1 (eggs of Aleyrodidae; listed as 1-(R, S)): 7; Number of hatched larvae 5 days after insecticide delivery, Replicate 2 (eggs of Aleyrodidae; listed as 1-(R, S)): 10; Number of hatched larvae 5 days after insecticide delivery, Replicate 3 (eggs of Aleyrodidae; listed as 1-(R, S)): 9; Number of hatched larvae 4 days after insecticide delivery, Replicate 1 ([1]; listed as 1-(R, S)): 11; Number of hatched larvae 4 days after insecticide delivery, Replicate 2 ([1]; listed as 1-(R, S)): 9; Number of hatched larvae 4 days after insecticide delivery, Replicate 3 ([1]; listed as 1-(R, S)): 10; Hatching rate (%), Replicate 1 ([1]; listed as 1-(R, S)): 9.91%; Hatching rate (%), Replicate 2 ([1]; listed as 1-(R, S)): 10.23%; Hatching rate (%), Replicate 3 ([1]; listed as 1-(R, S)): 10.53%
CCC(COc1ccc(Cl)cc1Cl)OS(=O)OCCF [19-(S,S)]	strong inhibitory rate	84.69	86.52	83.17	84.38	65.52	69.86	20	22	20.90	21.31	53	48	15.25	14.29	50	54				Hatching rate (%), Replicate 1 (eggs of Aleyrodidae; listed as 19-(S, S)): 12.36%; Hatching rate (%), Replicate 2 (eggs of Aleyrodidae; listed as 19-(S, S)): 12.03%; Hatching rate (%), Replicate 3 (eggs of Aleyrodidae; listed as 19-(S, S)): 12.28%; Number of hatched larvae 5 days after insecticide delivery, Replicate 1 (eggs of Aleyrodidae; listed as 19-(S, S)): 11; Number of hatched larvae 5 days after insecticide delivery, Replicate 2 (eggs of Aleyrodidae; listed as 19-(S, S)): 16; Number of hatched larvae 5 days after insecticide delivery, Replicate 3 (eggs of Aleyrodidae; listed as 19-(S, S)): 14; Number of hatched larvae 4 days after insecticide delivery, Replicate 1 ([1]; listed as 19-(S, S)): 13; Number of hatched larvae 4 days after insecticide delivery, Replicate 2 ([1]; listed as 19-(S, S)): 15; Number of hatched larvae 4 days after insecticide delivery, Replicate 3 ([1]; listed as 19-(S, S)): 16; Hatching rate (%), Replicate 1 ([1]; listed as 19-(S, S)): 13.68%; Hatching rate (%), Replicate 2 ([1]; listed as 19-(S, S)): 14.56%; Hatching rate (%), Replicate 3 ([1]; listed as 19-(S, S)): 15.38%
CCC(COc1ccc(Cl)cc1Cl)OS(=O)OCCF (centres unmarked) [Compound 19]	strong inhibitory rate	95.57	97.23	95.14	94.35	72.22	69.74	15	23	34.69	30.49	32	57	0.00	0.00	71	65	strong inhibitory activities	0.00	0.00	Hatching rate (%), Replicate 3 (eggs of Aleyrodidae): 0.00%; Number of hatched larvae 5 days after insecticide delivery, Replicate 1 (eggs of Aleyrodidae): 0; Number of hatched larvae 5 days after insecticide delivery, Replicate 2 (eggs of Aleyrodidae): 0; Number of hatched larvae 5 days after insecticide delivery, Replicate 3 (eggs of Aleyrodidae): 0; inhibitory activity on the hatching of eggs of Harmonia axyridis (in words) [1]: strong inhibitory activities; Number of hatched larvae 4 days after insecticide delivery, Replicate 1 [1]: 3; Number of hatched larvae 4 days after insecticide delivery, Replicate 2 [1]: 5; Number of hatched larvae 4 days after insecticide delivery, Replicate 3 [1]: 4; Hatching rate (%), Replicate 1 [1]: 3.26%; Hatching rate (%), Replicate 2 [1]: 4.45%; Hatching rate (%), Replicate 3 [1]: 4.17%; inhibitory effect on the hatching of pest eggs of Tetranychus cinnabarinus (in words) [2]: excellent inhibitory effects
CC[C@H](COc1ccc(Cl)cc1Cl)OS(=O)OCCF (stereo partly drawn) [19-(R,S)]	strong inhibitory rate	100.04	99.73	100.15	100.24	39.68	41.38	38	34	2.08	3.57	47	54	0.00	0.00	59	67	strong inhibitory activities	0.00	0.00	Hatching rate (%), Replicate 3 (eggs of Aleyrodidae): 0.00%; Number of hatched larvae 5 days after insecticide delivery, Replicate 1 (eggs of Aleyrodidae): 0; Number of hatched larvae 5 days after insecticide delivery, Replicate 2 (eggs of Aleyrodidae): 0; Number of hatched larvae 5 days after insecticide delivery, Replicate 3 (eggs of Aleyrodidae): 0; inhibitory activity on the hatching of eggs of Harmonia axyridis (in words) [1]: strong inhibitory activities; Number of hatched larvae 4 days after insecticide delivery, Replicate 1 [1]: 0; Number of hatched larvae 4 days after insecticide delivery, Replicate 2 [1]: 0; Number of hatched larvae 4 days after insecticide delivery, Replicate 3 [1]: 0; Hatching rate (%), Replicate 1 [1]: 0.00%; Hatching rate (%), Replicate 2 [1]: 0.00%; Hatching rate (%), Replicate 3 [1]: 0.00%; inhibitory effect on the hatching of pest eggs of Tetranychus cinnabarinus (in words) [2]: excellent inhibitory effects
